Experimental data taken from US8471005B2 (Cephalon, Inc., priority 2008, dated 2013).
pIC50: −log10 of the molar value. Like-named read-outs stand apart in the source and are kept apart here.

How the values were obtained:
ALK = biological target: T1, ALK (Homo sapiens, UniProt Q9UM73); assay: ALK Kinase Assay (ELISA/TRF, PLC-γ substrate); type: biochemical; conditions: read-out: ALK Potency
T1 construct: host or cells: baculovirus expression system
Procedure, shortened: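 First, plates are coated with substrate (phospholipase C-γ, 10 μg/mL, TBS). Next, 30 ng/ml ALK initiates phosphorylation for 15 min at 37° C. Then Eu-N1 PT66 antibody is added for detection, and a nonlinear dose-response fit of percent inhibition yields IC50.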

JAK2 = biological target: T2, JAK2 (Homo sapiens, UniProt O60674); assay: Recombinant Human JAK2 Kinase Assay (TRF); type: biochemical; conditions: read-out: JAK2 Potency
T2 construct: host or cells: baculovirus expression system
Procedure, shortened: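 TRF read-out: Eu-N1 PY100 anti-phosphotyrosine antibody detects product. Enzyme is baculovirus-expressed JAK2 at 15 ng/ml; substrate is a biotinyl 15-mer peptide bound to Neutravidin-coated wells. Buffer 20 mM HEPES pH 7.2, 0.2 μM ATP, 1 mM MnCl2, 0.1% BSA, 2.5% DMSO final; 20 min, RT.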

[1] = ALK kinase inhibition, 1 μM ATP
[2] = JAK2 kinase inhibition, 0.2 μM ATP

T1 sequence (Q9UM73 19-1620): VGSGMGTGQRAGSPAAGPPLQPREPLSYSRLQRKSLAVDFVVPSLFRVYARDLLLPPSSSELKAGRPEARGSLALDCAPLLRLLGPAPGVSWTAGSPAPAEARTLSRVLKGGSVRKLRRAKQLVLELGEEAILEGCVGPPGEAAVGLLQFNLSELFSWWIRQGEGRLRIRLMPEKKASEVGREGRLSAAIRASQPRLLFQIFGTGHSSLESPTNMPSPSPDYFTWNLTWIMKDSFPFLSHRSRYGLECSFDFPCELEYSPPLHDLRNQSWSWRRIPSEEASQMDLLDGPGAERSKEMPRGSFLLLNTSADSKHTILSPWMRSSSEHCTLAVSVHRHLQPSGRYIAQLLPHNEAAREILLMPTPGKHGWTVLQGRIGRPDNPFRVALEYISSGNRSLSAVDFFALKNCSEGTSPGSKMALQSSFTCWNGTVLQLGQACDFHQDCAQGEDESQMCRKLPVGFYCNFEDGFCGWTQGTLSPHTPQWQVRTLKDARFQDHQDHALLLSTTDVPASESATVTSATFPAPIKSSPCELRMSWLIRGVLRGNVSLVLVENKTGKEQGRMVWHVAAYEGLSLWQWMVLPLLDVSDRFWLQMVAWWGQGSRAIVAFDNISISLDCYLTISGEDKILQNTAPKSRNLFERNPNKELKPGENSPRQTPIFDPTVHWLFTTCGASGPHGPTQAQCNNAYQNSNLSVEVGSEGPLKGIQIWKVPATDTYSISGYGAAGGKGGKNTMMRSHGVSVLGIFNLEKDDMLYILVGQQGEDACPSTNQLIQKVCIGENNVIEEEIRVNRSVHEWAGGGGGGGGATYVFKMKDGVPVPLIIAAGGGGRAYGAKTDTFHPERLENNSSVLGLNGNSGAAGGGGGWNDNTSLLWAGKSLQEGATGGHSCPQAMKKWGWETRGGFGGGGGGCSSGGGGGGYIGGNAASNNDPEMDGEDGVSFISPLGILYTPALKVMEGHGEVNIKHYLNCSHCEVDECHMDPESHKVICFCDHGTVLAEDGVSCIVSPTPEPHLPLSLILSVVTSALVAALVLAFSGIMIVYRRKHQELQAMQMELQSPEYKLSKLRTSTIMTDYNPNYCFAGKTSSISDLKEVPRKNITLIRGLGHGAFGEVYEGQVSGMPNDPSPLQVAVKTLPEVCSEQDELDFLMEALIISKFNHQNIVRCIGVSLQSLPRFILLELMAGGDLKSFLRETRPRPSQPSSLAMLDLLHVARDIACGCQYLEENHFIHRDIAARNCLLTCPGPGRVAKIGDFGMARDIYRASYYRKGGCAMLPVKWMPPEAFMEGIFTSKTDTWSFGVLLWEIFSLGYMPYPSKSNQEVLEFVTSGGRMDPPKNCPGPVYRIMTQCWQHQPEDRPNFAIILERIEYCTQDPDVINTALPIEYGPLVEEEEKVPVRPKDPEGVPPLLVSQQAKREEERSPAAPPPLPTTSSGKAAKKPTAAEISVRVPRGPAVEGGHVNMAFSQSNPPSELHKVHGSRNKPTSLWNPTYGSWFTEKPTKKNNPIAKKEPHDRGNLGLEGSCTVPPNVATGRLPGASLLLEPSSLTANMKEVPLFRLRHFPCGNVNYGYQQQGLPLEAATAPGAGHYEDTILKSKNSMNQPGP
T2 sequence (O60674 whole entry): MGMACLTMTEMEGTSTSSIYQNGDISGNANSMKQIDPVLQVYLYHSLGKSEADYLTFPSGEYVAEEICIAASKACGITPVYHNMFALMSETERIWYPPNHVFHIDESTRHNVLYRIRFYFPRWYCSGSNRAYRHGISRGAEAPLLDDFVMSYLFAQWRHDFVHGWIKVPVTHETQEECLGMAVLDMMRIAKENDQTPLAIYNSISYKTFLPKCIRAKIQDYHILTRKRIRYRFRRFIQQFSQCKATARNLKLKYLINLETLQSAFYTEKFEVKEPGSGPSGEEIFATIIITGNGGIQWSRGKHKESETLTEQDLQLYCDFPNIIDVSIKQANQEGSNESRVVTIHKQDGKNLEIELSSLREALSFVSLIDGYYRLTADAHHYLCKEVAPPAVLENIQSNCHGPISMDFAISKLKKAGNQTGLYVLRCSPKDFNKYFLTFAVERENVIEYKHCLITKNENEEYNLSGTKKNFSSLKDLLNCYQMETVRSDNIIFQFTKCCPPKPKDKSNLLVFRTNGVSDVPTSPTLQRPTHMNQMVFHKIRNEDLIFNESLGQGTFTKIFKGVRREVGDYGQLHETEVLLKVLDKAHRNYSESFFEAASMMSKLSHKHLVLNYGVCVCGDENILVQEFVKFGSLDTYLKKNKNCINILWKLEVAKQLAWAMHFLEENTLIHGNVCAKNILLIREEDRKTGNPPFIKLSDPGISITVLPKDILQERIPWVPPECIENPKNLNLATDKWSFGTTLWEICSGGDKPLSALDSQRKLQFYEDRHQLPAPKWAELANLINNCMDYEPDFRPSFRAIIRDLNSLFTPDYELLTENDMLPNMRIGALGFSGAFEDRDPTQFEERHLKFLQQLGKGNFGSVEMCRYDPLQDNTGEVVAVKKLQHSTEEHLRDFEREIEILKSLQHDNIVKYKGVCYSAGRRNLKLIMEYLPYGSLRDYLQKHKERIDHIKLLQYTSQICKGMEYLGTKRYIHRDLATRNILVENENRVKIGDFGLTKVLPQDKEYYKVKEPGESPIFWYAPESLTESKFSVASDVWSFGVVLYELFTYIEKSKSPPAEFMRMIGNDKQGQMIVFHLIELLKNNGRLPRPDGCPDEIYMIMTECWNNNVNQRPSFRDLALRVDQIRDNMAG

| Compound | pIC50 (ALK; [1]) | pIC50 (JAK2; [2]) | pIC50 (ALK; ALK Kinase Inhibition) | pIC50 (JAK2; JAK2 Kinase Inhibition) |
| --- | --- | --- | --- | --- |
| COc1cc(C2CCN(C[C@H](O)CO)CC2)ccc1Nc1ncc2ccc(-c3ccccc3N(C)S(C)(=O)=O)n2n1 [Example 769, N-[2-(2-{4-[1-((S)-2,3-Dihydroxy-propyl)-piperidin-4-yl]-2-methoxy-phenylamino}-pyrrolo[2,1-f][1,2,4]triazin-7-yl)-phenyl]-N-methyl-methanesulfonamide] | > 7.00 | 6.00 to 7.00 | – | – |
| CN(c1ccccc1-c1cc(Cl)c2cnc(Nc3ccc(C4CCN(CC(N)=O)CC4)cc3)nn12)S(C)(=O)=O [Example 1553, 2-[4-(4-{5-Chloro-7-[2-(methanesulfonyl-methyl-amino)-phenyl]-pyrrolo[2,1-f][1,2,4]triazin-2-ylamino}-phenyl)-piperidin-1-yl]-acetamide] | – | – | > 7.00 | > 7.00 |
| OCC1CCN(c2ccc(Nc3ncc4ccc(-c5cccnc5)n4n3)cc2)CC1 [Example 116, {1-[4-(7-Pyridin-3-yl-pyrrolo[2,1-f][1,2,4]triazin-2-ylamino)-phenyl]-piperidin-4-yl}-methanol] | – | – | 5.00 to 6.00 | > 7.00 |
| CS(=O)(=O)c1ccc(-c2ccc3cnc(Nc4ccc5c(c4)CCC(N4CCOCC4)CC5)nn23)cc1 (stereo not drawn) [Example 612, [7-(4-Methanesulfonyl-phenyl)-pyrrolo[2,1-f][1,2,4]triazin-2-yl]-(7-morpholin-4-yl-6,7,8,9-tetrahydro-5H-benzocyclohepten-2-yl)-amine] | 6.00 to 7.00 | > 7.00 | – | – |
| COCCOc1ncc2ccc(-c3cc(Cl)ccc3OC)n2n1 [Example 191, 7-(5-Chloro-2-methoxy-phenyl)-2-(2-methoxy-ethoxy)-pyrrolo[2,1-f][1,2,4]triazine] | – | – | < 5.00 | > 7.00 |
| CN(C)S(=O)(=O)c1cccc(Nc2ncc3ccc(-c4cccc(S(=O)(=O)NC(C)(C)C)c4)n3n2)c1 [Example 592, 3-({7-[3-(tert-butylsulfamoyl)phenyl]pyrrolo[2,1-f][1,2,4]triazin-2-yl}amino)-N,N-dimethylbenzenesulfonamide] | 5.00 to 6.00 | > 7.00 | – | – |
| CN1CCN(c2ccc(Nc3ncc4ccc(-c5cccc(NS(C)(=O)=O)c5)n4n3)cn2)CC1 [Example 1122, N-(3-{2-[6-(4-Methyl-piperazin-1-yl)-pyridin-3-ylamino]-pyrrolo[2,1-f][1,2,4]triazin-7-yl}-phenyl)-methanesulfonamide] | 6.00 to 7.00 | > 7.00 | – | – |
| COc1ccccc1-c1ccc2cnc(Nc3ccc(C4CCNCC4)nc3)nn12 [Example 1026, (1′,2′,3′,4′,5′,6′-Hexahydro-[2,4]bipyridinyl-5-yl)-[7-(2-methoxy-phenyl)-pyrrolo[2,1-f][1,2,4]triazin-2-yl]-amine] | > 7.00 | > 7.00 | – | – |
| COCCN1CC[C@](O)(c2ccc(Nc3ncc4ccc(-c5ccccc5N(C)S(C)(=O)=O)n4n3)c(OC)c2)[C@@H](O)C1 (racemic) [Example 846, (±)-N-[2-(2-{4-[(3S,4S)-3,4-Dihydroxy-1-(2-methoxy-ethyl)-piperidin-4-yl]-2-methoxy-phenylamino}-pyrrolo[2,1-f][1,2,4]triazin-7-yl)-phenyl]-N-methyl-methanesulfonamide] | > 7.00 | 6.00 to 7.00 | – | – |
| CN(C)Cc1ccccc1-c1ccc2cnc(Nc3ccc(N4CCOCC4)cc3)nn12 [Example 1035, [7-(2-Dimethylaminomethyl-phenyl)-pyrrolo[2,1-f][1,2,4]triazin-2-yl]-(4-morpholin-4-yl-phenyl)-amine] | 5.00 to 6.00 | 6.00 to 7.00 | – | – |
| COc1ccccc1-c1ccc2cnc(Nc3ccc4nc(C(C)(C)C)[nH]c4c3)nn12 [Example 1352, (2-tert-Butyl-3H-benzimidazol-5-yl)-[7-(2-methoxy-phenyl)-pyrrolo[2,1-f][1,2,4]triazin-2-yl]-amine] | 6.00 to 7.00 | > 7.00 | – | – |
| CN1CCN(C)C(c2cccc(Nc3ncc4ccc(-c5cccc(S(=O)(=O)NC(C)(C)C)c5)n4n3)c2)C1=O (stereo not drawn) [Example 1077, N-tert-Butyl-3-{2-[3-(1,4-dimethyl-3-oxo-piperazin-2-yl)-phenylamino]-pyrrolo[2,1-f][1,2,4]triazin-7-yl}-benzenesulfonamide] | 5.00 to 6.00 | > 7.00 | – | – |
| CS(=O)(=O)c1cccc(-c2ccc3cnc(Nc4ccc5c(c4)CCC(N4CCOCC4)CC5)nn23)c1 (stereo not drawn) [Example 611, [7-(3-Methanesulfonyl-phenyl)-pyrrolo[2,1-f][1,2,4]triazin-2-yl]-(7-morpholin-4-yl-6,7,8,9-tetrahydro-5H-benzocyclohepten-2-yl)-amine] | 6.00 to 7.00 | > 7.00 | – | – |
| COc1cc(Nc2ncc3ccc(-c4cccc(S(C)(=O)=O)c4)n3n2)ccc1C1CCN(CC(N)=O)CC1 [Example 923, 2-(4-{4-[7-(3-Methanesulfonyl-phenyl)-pyrrolo[2,1-f][1,2,4]triazin-2-ylamino]-2-methoxy-phenyl}-piperidin-1-yl)-acetamide] | 6.00 to 7.00 | > 7.00 | – | – |
| CN1CCN(c2ccc(Nc3ncc4ccc(-c5ccc(S(=O)(=O)N(C)C)cc5)n4n3)cc2)CC1 [Example 83, N,N-Dimethyl-4-{2-[4-(4-methyl-piperazin-1-yl)-phenylamino]-pyrrolo[2,1-f][1,2,4]triazin-7-yl}-benzenesulfonamide] | – | – | 6.00 to 7.00 | > 7.00 |
| COc1ccc(Nc2ncc3ccc(-c4cccc(Cl)c4)n3n2)cc1OC [Example 152, [7-(3-Chloro-phenyl)-pyrrolo[2,1-f][1,2,4]triazin-2-yl]-(3,4-dimethoxy-phenyl)-amine] | – | – | 5.00 to 6.00 | > 7.00 |
| COc1ccc(-c2ccc3cnc(Nc4ccc(C5CCN(C)CC5)c(OC)c4)nn23)cn1 [Example 910, [3-Methoxy-4-(1-methyl-piperidin-4-yl)-phenyl]-[7-(6-methoxy-pyridin-3-yl)-pyrrolo[2,1-f][1,2,4]triazin-2-yl]-amine] | > 7.00 | > 7.00 | – | – |
| COc1ccccc1-c1ccc2cnc(Nc3cccc(OCC4CCCN4C)c3)nn12 (stereo not drawn) [Example 1006] | > 7.00 | > 7.00 | – | – |
| COc1ccccc1-c1ccc2cnc(Nc3ccc(N4CCOCC4)cc3F)nn12 [Example 370, (2-Fluoro-4-morpholin-4-yl-phenyl)-[7-(2-methoxy-phenyl)-pyrrolo[2,1-f][1,2,4]triazin-2-yl]-amine] | – | – | 6.00 to 7.00 | > 7.00 |
| COc1cc(C2CCN(CCO)CC2)ccc1Nc1ncc2ccc(-c3cccc(S(=O)(=O)NC4CC4)c3)n2n1 [Example 698] | > 7.00 | 6.00 to 7.00 | – | – |
| CN1CCN(Cc2nc3ccc(Nc4ncc5ccc(-c6ccccc6N(C)S(C)(=O)=O)n5n4)cc3[nH]2)CC1 [Example 1525, N-Methyl-N-(2-{2-[2-(4-methyl-piperazin-1-ylmethyl)-3H-benzimidazol-5-ylamino]-pyrrolo[2,1-f][1,2,4]triazin-7-yl}-phenyl)-methanesulfonamide] | – | – | 6.00 to 7.00 | > 7.00 |
| COc1cc(N2CCC(N3CCOCC3)CC2)ccc1Nc1ncc2ccc(-c3ccccc3CS(C)(=O)=O)n2n1 [Example 549, [7-(2-Methanesulfonylmethyl-phenyl)-pyrrolo[2,1-f][1,2,4]triazin-2-yl]-[2-methoxy-4-(4-morpholin-4-yl-piperidin-1-yl)-phenyl]-amine] | 6.00 to 7.00 | 5.00 to 6.00 | – | – |
| COc1cc(N2CCN(C)CC2)ccc1Nc1ncc2ccc(-c3ccc(S(C)(=O)=O)cc3)n2n1 [Example 62, [7-(4-Methanesulfonyl-phenyl)-pyrrolo[2,1-f][1,2,4]triazin-2-yl]-[2-methoxy-4-(4-methyl-piperazin-1-yl)-phenyl]-amine] | – | – | 6.00 to 7.00 | > 7.00 |
| COc1ccccc1-c1ccc2cnc(Nc3ccc4c(c3)C(=O)CC3(CCN(C)CC3)O4)nn12 [Example 376] | – | – | 6.00 to 7.00 | > 7.00 |
| CC(C)(C)NS(=O)(=O)c1cccc(-c2ccc3cnc(Nc4ccc(C5CCN(CC(N)=O)CC5)cc4)nn23)c1 [Example 1055, 2-(4-{4-[7-(3-tert-Butylsulfamoyl-phenyl)-pyrrolo[2,1-f][1,2,4]triazin-2-ylamino]-phenyl}-piperidin-1-yl)-acetamide] | 6.00 to 7.00 | > 7.00 | – | – |
| COc1ncccc1-c1ccc2cnc(Nc3ccc(N4CCN(C)CC4)cc3)nn12 [Example 22, [7-(2-Methoxy-pyridin-3-yl)-pyrrolo[2,1-f][1,2,4]triazin-2-yl]-[4-(4-methyl-piperazin-1-yl)-phenyl]-amine] | – | – | > 7.00 | > 7.00 |
| CN1CCN(c2ccc(Nc3ncc4ccc(-c5cnccc5NS(C)(=O)=O)n4n3)cc2)CC1 [Example 1218, N-(3-{2-[4-(4-Methyl-piperazin-1-yl)-phenylamino]-pyrrolo[2,1-f][1,2,4]triazin-7-yl}-pyridin-4-yl)-methanesulfonamide] | 5.00 to 6.00 | 6.00 to 7.00 | – | – |
| COc1ccccc1-c1ccc2cnc(Nc3cccc(C(=O)N4CCN(C)CC4)c3OC)nn12 [Example 1231, {2-Methoxy-3-[7-(2-methoxy-phenyl)-pyrrolo[2,1-f][1,2,4]triazin-2-ylamino]-phenyl}-(4-methyl-piperazin-1-yl)-methanone] | 6.00 to 7.00 | 5.00 to 6.00 | – | – |
| Cn1cc(-c2ccc3cnc(Nc4ccc5c(c4)NC(=O)C5)nn23)cn1 [Example 646, 6-[7-(1-Methyl-1H-pyrazol-4-yl)-pyrrolo[2,1-f][1,2,4]triazin-2-ylamino]-1,3-dihydro-indol-2-one] | 5.00 to 6.00 | > 7.00 | – | – |
| COc1ncccc1-c1ccc2cnc(Nc3ccc(N4CCOCC4)cc3)nn12 [Example 16, [7-(2-Methoxy-pyridin-3-yl)-pyrrolo[2,1-f][1,2,4]triazin-2-yl]-(4-morpholin-4-yl-phenyl)-amine] | – | – | 6.00 to 7.00 | > 7.00 |
